Source: patent publication US11274165B2, “Pentosan polysulfate, pharmaceutical composition, and anticoagulant” (OJI HOLDINGS CORPORATION, priority 2017, dated 2022)

What was measured:
factor Xa = assay: Anti-Xa activity measured using Test Team Heparin S (Sekisui Medical); format: biochemical; conditions: for Anti-Xa/anti-IIa activity ratio: ratio of anti-Xa activity to anti-IIa activity
Protocol: Herein, the factor Xa inhibitory activity (anti-Xa activity) can be measured using Test Team (registered trademark) Heparin S (manufactured by Sekisui Medical Co., Ltd.).
Using Test Team (registered trademark) Heparin S (manufactured by Sekisui Medical Co., Ltd.), the anti-Xa activity of pentosan polysulfate sodium was measured.
(§1) The content of acetyl groups, the content of sulfur, the anti-Xa activity, and the anti-IIa activity were measured in the same manners as those of Examples 1 to 5.

factor IIa = molecular target: T1, factor IIa (Homo sapiens, UniProt P00734); assay: Anti-IIa activity measured using Biophen heparin anti-IIa (Hyphen Biomed); format: biochemical
T1 construct: purchased Hyphen Biomed
Protocol: Moreover, the factor IIa inhibitory activity (anti-IIa activity) can be measured using Biophen heparin anti-IIa (manufactured by Hyphen Biomed).
Using Biophen heparin anti-IIa (manufactured by Hyphen Biomed), the anti-IIa activity of pentosan polysulfate sodium was measured.
as §1

[1] = Table 1, influence of content of acetyl groups
[2] = Table 3, influence of molecular weight

## pentosan polysulfate sodium [Ex. 1]
Factor Xa; [1]
  Anti-Xa activity (IU/mg): 0.2047 IU/mg
Factor Xa; Table 1
  Anti-Xa/anti-IIa activity ratio: 1.457
Factor IIa; [1]
  Anti-IIa activity (IU/mg): 0.1405 IU/mg

## pentosan polysulfate sodium [Comp. Ex. 1, reference compound]
Factor Xa; [1]
  Anti-Xa activity (IU/mg): 0.0840 IU/mg
Factor Xa; Table 1
  Anti-Xa/anti-IIa activity ratio: 3.801
Factor IIa; [1]
  Anti-IIa activity (IU/mg): 0.0221 IU/mg

## pentosan polysulfate sodium [Comp. Ex. 4]
Factor Xa; [2]
  Anti-Xa activity (IU/mg): 0.73 IU/mg
Factor Xa; Table 3
  Anti-Xa/anti-IIa activity ratio: 0.11
Factor IIa; [2]
  Anti-IIa activity (IU/mg): 6.80 IU/mg

## pentosan polysulfate sodium [Ex. 7]
Factor Xa; [2]
  Anti-Xa activity (IU/mg): 0.15 IU/mg
Factor Xa; Table 3
  Anti-Xa/anti-IIa activity ratio: 1.25
Factor IIa; [2]
  Anti-IIa activity (IU/mg): 0.12 IU/mg

## pentosan polysulfate sodium [Ex. 2]
Factor Xa; [1]
  Anti-Xa activity (IU/mg): 0.2588 IU/mg
Factor Xa; Table 1
  Anti-Xa/anti-IIa activity ratio: 1.403
Factor IIa; [1]
  Anti-IIa activity (IU/mg): 0.1845 IU/mg

## pentosan polysulfate sodium [Comp. Ex. 3, reference compound]
Factor Xa; [2]
  Anti-Xa activity (IU/mg): 16.61 IU/mg
Factor Xa; Table 3
  Anti-Xa/anti-IIa activity ratio: 0.15
Factor IIa; [2]
  Anti-IIa activity (IU/mg): 62.12 IU/mg

## pentosan polysulfate sodium [Ex. 8]
Factor Xa; [2]
  Anti-Xa activity (IU/mg): 0.22 IU/mg
Factor Xa; Table 3
  Anti-Xa/anti-IIa activity ratio: 0.51
Factor IIa; [2]
  Anti-IIa activity (IU/mg): 0.43 IU/mg

## pentosan polysulfate sodium [Ex. 3]
Factor Xa; [1]
  Anti-Xa activity (IU/mg): 0.2439 IU/mg
Factor Xa; Table 1
  Anti-Xa/anti-IIa activity ratio: 3.607
Factor IIa; [1]
  Anti-IIa activity (IU/mg): 0.0676 IU/mg

## pentosan polysulfate sodium [Comp. Ex. 2]
Factor Xa; [2]
  Anti-Xa activity (IU/mg): 1.69 IU/mg
Factor Xa; Table 3
  Anti-Xa/anti-IIa activity ratio: 0.11
Factor IIa; [2]
  Anti-IIa activity (IU/mg): 15.52 IU/mg

## pentosan polysulfate sodium [Ex. 5]
Factor Xa; [1]
  Anti-Xa activity (IU/mg): 0.2297 IU/mg
Factor Xa; Table 1
  Anti-Xa/anti-IIa activity ratio: 2.352
Factor IIa; [1]
  Anti-IIa activity (IU/mg): 0.0976 IU/mg

## pentosan polysulfate sodium [Ex. 6]
Factor Xa; [2]
  Anti-Xa activity (IU/mg): 0.67 IU/mg
Factor Xa; Table 3
  Anti-Xa/anti-IIa activity ratio: 4.29
Factor IIa; [2]
  Anti-IIa activity (IU/mg): 0.15 IU/mg

## pentosan polysulfate sodium [Ex. 4]
Factor Xa; [1]
  Anti-Xa activity (IU/mg): 0.2419 IU/mg
Factor Xa; Table 1
  Anti-Xa/anti-IIa activity ratio: 2.591
Factor IIa; [1]
  Anti-IIa activity (IU/mg): 0.0934 IU/mg
